Reference: US9067974B2, “Polymyxin derivatives and uses thereof” (priority 2006, dated 2015)

Experiments:
[1] = tested on: A. baumannii ATCC 19606; assay: Sensitization to rifampin: well diffusion growth inhibition on LB plates containing rifampin; format: cell-based, Acinetobacter baumannii; details: 4 μg of compound
[2] = tested on: Ps. aeruginosa ATCC 27853; assay: as above; format: cell-based, Pseudomonas aeruginosa; details: 4 μg of compound
[3] = tested on: E. coli IH3080 (K1:O18); assay: Well diffusion growth inhibition on LB agar plates (direct antibacterial activity); format: cell-based, Escherichia coli
Experimental: Peptides synthesized in Example 1, all carrying at least two (2) but not more than three (3) positive charges, were studied for their ability to inhibit the growth of E. coli. This was tested employing LB agar (LB Agar Lennox, Difco, BD, Sparks, Md., U.S.A) plates. The indicator organism E. coli IH3080 (K1:O18) was an encapsulated strain originally isolated from a neonate suffering from meningitis (Vaara et al. 1984) and obtained from National Public Health Institute, Helsinki, Finland.
(§1) From an overnight-grown culture of IH3080 on LB agar, a suspension of approx. 10^8 cells/ml was prepared in 0.9% NaCl. Aliquots of this suspension were then pipetted on the agar plates and the plates were gently shaken to spread the suspension evenly on the entire surface of the plate. Thereafter, the unabsorbed part of the suspension was removed by using a Pasteur pipette. After the surface had dried, small wells (diameter, 2 mm) were drilled on the plates (five wells per plate) by using a sterile sharp-edged narrow metal tube, single-use pipette tip, and vacuum suction. […] Controls included 0.9% NaCl solution without the compound to be tested. The plates were then incubated for 18 h at 37° C. whereafter the diameters of growth inhibition zones around each well were measured; the diameter of the well itself was not reduced. Finally, the diameters were converted to surface areas of growth inhibition (in square mm).

[4] = tested on: E. coli IH3080; assay: Sensitization to rifampin: well diffusion growth inhibition on LB plates containing rifampin; format: cell-based, Escherichia coli; details: 4 μg of compound
Experimental: as §1

[5] = tested on: Pseudomonas aeruginosa ATCC 27853; assay: Well diffusion growth inhibition on LB agar plates (direct antibacterial activity); format: cell-based; details: Ps. aeruginosa ATCC 27853
Experimental: (§2) From an overnight-grown culture of IH3080 on LB agar, a suspension of approx. 10^8 cells/ml was prepared in 0.9% NaCl. Aliquots of this suspension were then pipetted on the agar plates and the plates were gently shaken to spread the suspension evenly on the entire surface of the plate. Thereafter, the unabsorbed part of the suspension was removed by using a Pasteur pipette. After the surface had dried, small wells (diameter, 2 mm) were drilled on the plates (five wells per plate) by using a sterile sharp-edged narrow metal tube, single-use pipette tip, and vacuum suction. Samples (4 μl and 10 μl) of the peptide solution in 0.9% NaCl (at concentrations of 1 μg/ml and 0.1 μg/ml) were then pipetted to the wells and the sample fluids were allowed to absorb. Controls included 0.9% NaCl solution without the compound to be tested. The plates were then incubated for 18 h at 37° C. whereafter the diameters of growth inhibition zones around each well were measured; the diameter of the well itself was not reduced. Finally, the diameters were converted to surface areas of growth inhibition (in square mm).
(§3) Direct antibacterial activity of twelve NAB compounds against Acinetobacter baumannii ATCC 19606 and Pseudomonas aeruginosa ATCC 27853 was tested by using the susceptibility determination method described in Example 2. Five compounds (NAB7062, NAB734, NAB737, NAB739, and NAB740) had notable activity against A. baumannii. […] The antibacterial activity of NAB739 and NAB740 were as strong as or even stronger than that of polymyxin B.

[6] = tested on: Acinetobacter baumannii ATCC 19606; assay: as above; format: cell-based; details: A. baumannii ATCC 19606
Experimental: as §2, §3

Row | Substance | Antibacterial activity in the presence of rifampin (growth inhibition area around a well) ([1]; rifampin 0 μg/ml) | Antibacterial activity in the presence of rifampin (growth inhibition area around a well) ([1]; rifampin 0.1 μg/ml) | Antibacterial activity in the presence of rifampin (growth inhibition area around a well) ([1]; rifampin 0.3 μg/ml) | Antibacterial activity in the presence of rifampin (growth inhibition area around a well) ([2]; rifampin 0 μg/ml) | Antibacterial activity in the presence of rifampin (growth inhibition area around a well) ([2]; rifampin 0.1 μg/ml) | Antibacterial activity in the presence of rifampin (growth inhibition area around a well) ([2]; rifampin 0.3 μg/ml) | Antibacterial activity (growth inhibition area around a well) ([3]; 4 μg of compound per well) | Antibacterial activity (growth inhibition area around a well) ([3]; 10 μg of compound per well) | Antibacterial activity in the presence of rifampin (growth inhibition area around a well) ([4]; rifampin 0 μg/ml) | Antibacterial activity in the presence of rifampin (growth inhibition area around a well) ([4]; rifampin 0.1 μg/ml) | Antibacterial activity in the presence of rifampin (growth inhibition area around a well) ([4]; rifampin 1.0 μg/ml) | Antibacterial activity (growth inhibition area around a well) ([5]; 4 μg per well) | Antibacterial activity (growth inhibition area around a well) ([5]; 10 μg per well) | Antibacterial activity (growth inhibition area around a well) ([6]; 4 μg per well) | Antibacterial activity (growth inhibition area around a well) ([6]; 10 μg per well)
1 | DA-Thr-Abu-cy[Dab-Dab-DPhe-Leu-Dab-Dab-Thr-] [NAB 7062] | 13 square millimeters | 50 square millimeters | 95 square millimeters | 0 square millimeters | 0 square millimeters | 7 square millimeters | 50 square millimeters | 99 square millimeters | 50 square millimeters | 104 square millimeters | 104 square millimeters | 0 square millimeters | 0 square millimeters | 13 square millimeters | 38 square millimeters
2 | DA-Thr-DSer-cy[Dab-Dab-DPhe-Leu-Dab-Dab-Thr-] [NAB 740] | 133 square millimeters | 154 square millimeters | 154 square millimeters | 64 square millimeters | 64 square millimeters | 64 square millimeters | 95 square millimeters | 133 square millimeters | 95 square millimeters | 95 square millimeters | 95 square millimeters | 64 square millimeters | 133 square millimeters | 133 square millimeters | 201 square millimeters
3 | DA-cy[Dab-Dab-DPhe-Leu-Dab-Dab-Thr-] [NAB 736] | 0 square millimeters | 95 square millimeters | 154 square millimeters | 38 square millimeters | 38 square millimeters | 38 square millimeters | 0 square millimeters | 0 square millimeters | 0 square millimeters | 113 square millimeters | 133 square millimeters | 38 square millimeters | 79 square millimeters | 0 square millimeters | 0 square millimeters
4 | OA-Thr-Abu-cy[Dab-Dab-DLeu-Leu-Dab-Dab-Thr-] [NAB 718] | 0 square millimeters | 0 square millimeters | 38 square millimeters | 0 square millimeters | 0 square millimeters | 0 square millimeters | 0 square millimeters | 0 square millimeters | 0 square millimeters | 13 square millimeters | 133 square millimeters | 0 square millimeters | 0 square millimeters | 0 square millimeters | 0 square millimeters
5 | OA-Thr-Abu-cy[Dab-Dab-DPhe-Leu-Dab-Dab-Leu-] [NAB 719] | 0 square millimeters | 154 square millimeters | 133 square millimeters | 0 square millimeters | 0 square millimeters | 7 square millimeters | 7 square millimeters | 50 square millimeters | 7 square millimeters | 79 square millimeters | 95 square millimeters | 0 square millimeters | 0 square millimeters | 0 square millimeters | 0 square millimeters
6 | OA-Thr-DAla-cy[Dab-Dab-DPhe-Thr-Dab-Dab-Thr-] [NAB 738] | 0 square millimeters | 95 square millimeters | 154 square millimeters | 0 square millimeters | 13 square millimeters | 13 square millimeters | 0 square millimeters | 64 square millimeters | 0 square millimeters | 133 square millimeters | 177 square millimeters | 0 square millimeters | 0 square millimeters | 0 square millimeters | 0 square millimeters
